Measurements taken from patent publication US8741836B2, “Polypeptides” (Novo Nordisk A/S, priority 2011, dated 2014).
Starred links: 1 amine or outer side, 2 acyl side, 3 side chain; linkers in the order of their positions; H or OH if unused. Positions of bridges follow the written chain, without caps; N, C: chain ends. Residues, ends and D or L forms follow the SMILES beside them. *: point of attachment. C20 diacid = O=C(O)CCCCCCCCCCCCCCCCCCC(=O)*; γGlu = O=C(O)[C@H](CCC(=O)[*:2])N[*:1]

experiment: Assay (III) ThT fibrillation assay for physical stability; format: physicochemical; settings: pH 4.0
Summary of the method: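 Freshly prepared, pH-adjusted formulations with 1 μM ThT incubated at 37 °C under 960 rpm orbital shaking (1 mm), fluorescence (ex 444, em 485 nm) read every 20 min. […] Peptide content before and after measured by reverse-phase HPLC against pramlintide standard.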

Row | ThT pH 4.0 lag time (physical stability in fibrillogenesis assay) | SMILES
1 | >45 h | CC[C@H](C)[C@H](NC(=O)[C@@H]1CCCN1C(=O)CNC(=O)[C@H](Cc1ccccc1)NC(=O)[C@H](CC(N)=O)NC(=O)[C@H](CC(N)=O)NC(=O)[C@H](CO)NC(=O)[C@H](CO)NC(=O)[C@H](Cc1c[nH]cn1)NC(=O)[C@H](Cc1c[nH]cn1)NC(=O)[C@H](CC(C)C)NC(=O)[C@H](Cc1ccccc1)NC(=O)[C@H](CCC(=O)O)NC(=O)[C@H](C)NC(=O)[C@H](CC(C)C)NC(=O)[C@H](CCCNC(=N)N)NC(=O)[C@H](CCC(N)=O)NC(=O)[C@@H](NC(=O)[C@H](C)NC(=O)[C@@H]1CSSC[C@H](NC(=O)[C@H](CCCCN)NC(=O)CC[C@H](NC(=O)CCCCCCCCCCCCCCCCCCC(=O)O)C(=O)O)C(=O)N[C@@H](CC(N)=O)C(=O)N[C@@H]([C@@H](C)O)C(=O)N[C@@H](C)C(=O)N[C@@H]([C@@H](C)O)C(=O)N1)[C@@H](C)O)C(=O)N[C@@H](CC(C)C)C(=O)N1CCC[C@H]1C(=O)N1CCC[C@H]1C(=O)N[C@H](C(=O)N[C@@H](CC(N)=O)C(=O)N[C@H](C(=O)NCC(=O)N[C@@H](CO)C(=O)N[C@@H](CCCCN)C(=O)N[C@H](C(=O)N[C@@H](Cc1ccc(O)cc1)C(N)=O)[C@@H](C)O)C(C)C)[C@@H](C)O [Example 113, N-alpha-[(S)-4-Carboxy-4-(19-carboxynonadecanoylamino)butyryl]-[Glu14,His17,Lys35]-pramlintide] ({C20 diacid-γGlu}-KCNTATCATQRLAEFLHHSSNNFGPILPPTNVGSKTY-NH2; disulfide 2-7 (inferred))

same assay, conditions: pH 4.0, ThT fibrillation assay

Row | ThT pH 4.0 lag time | SMILES
2 | 26 h | CC[C@H](C)[C@H](NC(=O)[C@@H]1CCCN1C(=O)CNC(=O)[C@H](Cc1ccccc1)NC(=O)[C@H](CC(N)=O)NC(=O)[C@H](CC(N)=O)NC(=O)[C@H](CO)NC(=O)[C@H](CO)NC(=O)[C@H](Cc1c[nH]cn1)NC(=O)[C@H](Cc1c[nH]cn1)NC(=O)[C@H](CC(C)C)NC(=O)[C@H](Cc1ccccc1)NC(=O)[C@H](CCC(=O)O)NC(=O)[C@H](C)NC(=O)[C@H](CC(C)C)NC(=O)[C@H](CCCNC(=N)N)NC(=O)[C@H](CCC(N)=O)NC(=O)[C@@H](NC(=O)[C@H](C)NC(=O)[C@@H]1CSSC[C@H](NC(=O)CNC(=O)CC[C@H](NC(=O)CCCCCCCCCCCCCCCCCCC(=O)O)C(=O)O)C(=O)N[C@@H](CC(N)=O)C(=O)N[C@@H]([C@@H](C)O)C(=O)N[C@@H](C)C(=O)N[C@@H]([C@@H](C)O)C(=O)N1)[C@@H](C)O)C(=O)N[C@@H](CC(C)C)C(=O)N1CCC[C@H]1C(=O)N1CCC[C@H]1C(=O)N[C@H](C(=O)N[C@@H](CC(N)=O)C(=O)N[C@H](C(=O)NCC(=O)N[C@@H](CO)C(=O)N[C@@H](Cc1c[nH]cn1)C(=O)N[C@H](C(=O)N[C@@H](Cc1ccc(O)cc1)C(N)=O)[C@@H](C)O)C(C)C)[C@@H](C)O [Example 105, N-alpha-[(S)-4-Carboxy-4-(19-carboxynonadecanoylamino)butyryl]-[Gly1,Glu14,His17,His35]-pramlintide] ({C20 diacid-γGlu}-GCNTATCATQRLAEFLHHSSNNFGPILPPTNVGSHTY-NH2; disulfide 2-7)
3 | >45 h | CC[C@H](C)[C@H](NC(=O)[C@@H]1CCCN1C(=O)CNC(=O)[C@H](Cc1ccccc1)NC(=O)[C@H](CC(N)=O)NC(=O)[C@H](CO)NC(=O)[C@H](CO)NC(=O)[C@H](CO)NC(=O)[C@H](Cc1c[nH]cn1)NC(=O)[C@H](CCCNC(=N)N)NC(=O)[C@H](CC(C)C)NC(=O)[C@H](Cc1ccccc1)NC(=O)[C@H](CCC(=O)O)NC(=O)[C@H](C)NC(=O)[C@H](CC(C)C)NC(=O)[C@H](CCCNC(=N)N)NC(=O)[C@H](CCC(N)=O)NC(=O)[C@@H](NC(=O)[C@H](C)NC(=O)[C@@H]1CSSC[C@H](NC(=O)[C@H](Cc2c[nH]cn2)NC(=O)CC[C@H](NC(=O)CCCCCCCCCCCCCCCCCCC(=O)O)C(=O)O)C(=O)N[C@@H](CC(N)=O)C(=O)N[C@@H]([C@@H](C)O)C(=O)N[C@@H](C)C(=O)N[C@@H]([C@@H](C)O)C(=O)N1)[C@@H](C)O)C(=O)N[C@@H](CC(C)C)C(=O)N[C@@H](CO)C(=O)N[C@@H](CO)C(=O)N[C@H](C(=O)N[C@@H](CC(N)=O)C(=O)N[C@H](C(=O)NCC(=O)N[C@@H](CO)C(=O)N[C@@H](Cc1c[nH]cn1)C(=O)N[C@H](C(=O)N[C@@H](Cc1ccc(O)cc1)C(N)=O)[C@@H](C)O)C(C)C)[C@@H](C)O [Example 111, N-alpha-[(S)-4-Carboxy-4-(19-carboxynonadecanoylamino)butyryl]-[His1,Glu14,Arg17,Ser21,Ser28,Ser29,His35]-pramlintide] ({C20 diacid-γGlu}-HCNTATCATQRLAEFLRHSSSNFGPILSSTNVGSHTY-NH2; disulfide 2-7)
4 | >45 h | CC[C@H](C)[C@H](NC(=O)[C@@H]1CCCN1C(=O)CNC(=O)[C@H](Cc1ccccc1)NC(=O)[C@H](CC(N)=O)NC(=O)[C@H](CC(N)=O)NC(=O)[C@H](CO)NC(=O)[C@H](CO)NC(=O)[C@H](Cc1c[nH]cn1)NC(=O)[C@H](Cc1c[nH]cn1)NC(=O)[C@H](CC(C)C)NC(=O)[C@H](Cc1ccccc1)NC(=O)[C@H](CCC(=O)O)NC(=O)[C@H](C)NC(=O)[C@H](CC(C)C)NC(=O)[C@H](CCCNC(=N)N)NC(=O)[C@H](CCC(N)=O)NC(=O)[C@@H](NC(=O)[C@H](C)NC(=O)[C@@H]1CSSC[C@H](NC(=O)[C@H](CCCCN)NC(=O)CC[C@H](NC(=O)CCCCCCCCCCCCCCCCCCC(=O)O)C(=O)O)C(=O)N[C@@H](CC(N)=O)C(=O)N[C@@H]([C@@H](C)O)C(=O)N[C@@H](C)C(=O)N[C@@H]([C@@H](C)O)C(=O)N1)[C@@H](C)O)C(=O)N[C@@H](CC(C)C)C(=O)N1CCC[C@H]1C(=O)N1CCC[C@H]1C(=O)N[C@H](C(=O)N[C@@H](CC(N)=O)C(=O)N[C@H](C(=O)NCC(=O)N[C@@H](CO)C(=O)N[C@@H](CCCNC(=N)N)C(=O)N[C@H](C(=O)N[C@@H](Cc1ccc(O)cc1)C(N)=O)[C@@H](C)O)C(C)C)[C@@H](C)O [Example 112, N-alpha-[(S)-4-Carboxy-4-(19-carboxynonadecanoylamino)butyryl]-[Glu14,His17,Arg35]-pramlintide] ({C20 diacid-γGlu}-KCNTATCATQRLAEFLHHSSNNFGPILPPTNVGSRTY-NH2; disulfide 2-7 (inferred))
5 | >45 h | CC[C@H](C)[C@H](NC(=O)[C@@H]1CCCN1C(=O)CNC(=O)[C@H](Cc1ccccc1)NC(=O)[C@H](CC(N)=O)NC(=O)[C@H](CC(N)=O)NC(=O)[C@H](CO)NC(=O)[C@H](CO)NC(=O)[C@H](Cc1c[nH]cn1)NC(=O)[C@H](Cc1c[nH]cn1)NC(=O)[C@H](CC(C)C)NC(=O)[C@H](Cc1ccccc1)NC(=O)[C@H](CCC(=O)O)NC(=O)[C@H](C)NC(=O)[C@H](CC(C)C)NC(=O)[C@H](CCCNC(=N)N)NC(=O)[C@H](CCC(N)=O)NC(=O)[C@@H](NC(=O)[C@H](C)NC(=O)[C@@H]1CSSC[C@H](NC(=O)[C@H](CCCCN)NC(=O)CC[C@H](NC(=O)CCCCCCCCCCCCCCCCCCC(=O)O)C(=O)O)C(=O)N[C@@H](CC(N)=O)C(=O)N[C@@H]([C@@H](C)O)C(=O)N[C@@H](C)C(=O)N[C@@H]([C@@H](C)O)C(=O)N1)[C@@H](C)O)C(=O)N[C@@H](CC(C)C)C(=O)N1CCC[C@H]1C(=O)N1CCC[C@H]1C(=O)N[C@H](C(=O)N[C@@H](CC(N)=O)C(=O)N[C@H](C(=O)NCC(=O)N[C@@H](CO)C(=O)N[C@@H](CCCCN)C(=O)N[C@H](C(=O)N[C@@H](Cc1ccc(O)cc1)C(N)=O)[C@@H](C)O)C(C)C)[C@@H](C)O [Example 113, N-alpha-[(S)-4-Carboxy-4-(19-carboxynonadecanoylamino)butyryl]-[Glu14,His17,Lys35]-pramlintide] ({C20 diacid-γGlu}-KCNTATCATQRLAEFLHHSSNNFGPILPPTNVGSKTY-NH2; disulfide 2-7 (inferred))
6 | >45 h | CC[C@H](C)[C@H](NC(=O)[C@@H]1CCCN1C(=O)CNC(=O)[C@H](Cc1ccccc1)NC(=O)[C@H](CC(N)=O)NC(=O)[C@H](CC(N)=O)NC(=O)[C@H](CO)NC(=O)[C@H](CO)NC(=O)[C@H](Cc1c[nH]cn1)NC(=O)[C@H](Cc1c[nH]cn1)NC(=O)[C@H](CC(C)C)NC(=O)[C@H](Cc1ccccc1)NC(=O)[C@H](CCC(=O)O)NC(=O)[C@H](C)NC(=O)[C@H](CC(C)C)NC(=O)[C@H](CCCNC(=N)N)NC(=O)[C@H](CCC(N)=O)NC(=O)[C@@H](NC(=O)[C@H](C)NC(=O)[C@@H]1CSSC[C@H](NC(=O)[C@H](CCCCN)NC(=O)CC[C@H](NC(=O)CCCCCCCCCCCCCCCCCCC(=O)O)C(=O)O)C(=O)N[C@@H](CC(N)=O)C(=O)N[C@@H]([C@@H](C)O)C(=O)N[C@@H](C)C(=O)N[C@@H]([C@@H](C)O)C(=O)N1)[C@@H](C)O)C(=O)N[C@@H](CC(C)C)C(=O)N1CCC[C@H]1C(=O)N1CCC[C@H]1C(=O)N[C@H](C(=O)N[C@@H](CC(N)=O)C(=O)N[C@H](C(=O)NCC(=O)N[C@@H](CO)C(=O)N[C@@H](CC(N)=O)C(=O)N[C@@H](Cc1c[nH]cn1)C(=O)N[C@@H](Cc1ccc(O)cc1)C(N)=O)C(C)C)[C@@H](C)O [Example 114, N-alpha-[(S)-4-Carboxy-4-(19-carboxynonadecanoylamino)butyryl]-[Glu14,His17,His36]-pramlintide] ({C20 diacid-γGlu}-KCNTATCATQRLAEFLHHSSNNFGPILPPTNVGSNHY-NH2; disulfide 2-7 (inferred))
7 | >45 h | CC[C@H](C)[C@H](NC(=O)[C@@H]1CCCN1C(=O)CNC(=O)[C@H](Cc1ccccc1)NC(=O)[C@H](CC(N)=O)NC(=O)[C@H](CC(N)=O)NC(=O)[C@H](CO)NC(=O)[C@H](CO)NC(=O)[C@H](Cc1c[nH]cn1)NC(=O)[C@H](Cc1c[nH]cn1)NC(=O)[C@H](CC(C)C)NC(=O)[C@H](Cc1ccccc1)NC(=O)[C@H](CCC(=O)O)NC(=O)[C@H](C)NC(=O)[C@H](CC(C)C)NC(=O)[C@H](CCCNC(=N)N)NC(=O)[C@H](CCC(N)=O)NC(=O)[C@@H](NC(=O)[C@H](C)NC(=O)[C@@H]1CSSC[C@H](NC(=O)[C@H](CCCCN)NC(=O)CC[C@H](NC(=O)CCCCCCCCCCCCCCCCCCC(=O)O)C(=O)O)C(=O)N[C@@H](CC(N)=O)C(=O)N[C@@H]([C@@H](C)O)C(=O)N[C@@H](C)C(=O)N[C@@H]([C@@H](C)O)C(=O)N1)[C@@H](C)O)C(=O)N[C@@H](CC(C)C)C(=O)N1CCC[C@H]1C(=O)N1CCC[C@H]1C(=O)N[C@H](C(=O)N[C@@H](CC(N)=O)C(=O)N[C@H](C(=O)NCC(=O)N[C@@H](Cc1c[nH]cn1)C(=O)N[C@@H](CC(N)=O)C(=O)N[C@H](C(=O)N[C@@H](Cc1ccc(O)cc1)C(N)=O)[C@@H](C)O)C(C)C)[C@@H](C)O [Example 115, N-alpha-[(S)-4-Carboxy-4-(19-carboxynonadecanoylamino)butyryl]-[Glu14,His17,His34]-pramlintide] ({C20 diacid-γGlu}-KCNTATCATQRLAEFLHHSSNNFGPILPPTNVGHNTY-NH2; disulfide 2-7 (inferred))
